For 21 compounds, IC50 and viability results are on record in PMC12368482, “Antiprotozoal Activity of Highly Substituted Pyrazole and Pyrimidine Derivatives” (Chemmedchem, 2025).

Where two headings read alike, the source gives them in different places.

By IC50 is commonly meant the concentration needed to halve the response being measured. Broadly, the viability is a read-out of living cells in per cent, often relative to untreated cells.

Holding throughout (assay type): cell-based
Series [1] deals with P. falciparum D10. Nature of the series: Antiplasmodial susceptibility assay (pLDH), CQ-sensitive D10 strain. Particulars: Plasmodium falciparum, read-out: IC50 P. falciparum D10. As for the experimental part:
(§1) Continuous in vitro Plasmodium falciparum cultures were carried out according to Trager and Jensen with slight modifications.^[ [38] ^] The CQ‐susceptible strain D10 and the CQ‐resistant strain W2 were maintained at 5% hematocrit (human type A‐positive red blood cells) in RPMI 1640 (EuroClone, Celbio) medium with the addition of 1% AlbuMax (Invitrogen, Milan, Italy), 0.01% hypoxanthine, 20 mM HEPES (at pH 7.4), and 2 mM glutamine. All the cultures were maintained at 37 °C in a low‐oxygen atmosphere consisting of 1% O2, 5% CO2, and 94% N2. Compounds were dissolved in DMSO to a stock concentration of 10 mg/ml and then diluted with complete medium to achieve the desired concentrations (final DMSO concentration <1%, which is nontoxic to the parasite). Derivatives were placed in 96‐well flat‐bottomed microplates in duplicate, and seven 1:2 serial dilutions were made directly in the plate in a volume of 100 μL. Asynchronous cultures with parasitemia of 1%–1.5% (assessed through Giemsa stained blood smears) and 1% final hematocrit were aliquoted into the plates and incubated for 72 h at 37 °C in a final volume of 200 μL/well. Uninfected erythrocytes at 2% hematocrit were used as blank. The antimalarial CQ was tested against the parasite strains as a positive control of inhibition. Parasite growth was determined spectrophotometrically (OD650) by measuring the activity of the parasite lactate dehydrogenase (pLDH), according to a modified version of the method of Makler in control and drug‐treated cultures.^[ [39] ^] The antimalarial activity was expressed as 50% inhibitory concentrations (IC50). The IC50 values were extrapolated from nonlinear regression analysis of the concentration–response curve, using the software Gen5 1.10 provided with the Synergy 4 (BioTek) reader. Each IC50 value was the mean of three independent experiments run in duplicates.

For series [2], the system named is P. falciparum W2. Nature of the series: Antiplasmodial susceptibility assay (pLDH), CQ-resistant W2 strain. Particulars: Plasmodium falciparum, read-out: IC50 P. falciparum W2. Here is the method: as §1
Series [3] has as its system L. infantum promastigotes. Nature of the series: Antileishmanial evaluation (MTT), promastigotes. Particulars: Leishmania infantum, 72 h, NA = not active. As for the experimental part: (§2) The promastigote stage of L. infantum strain MHOM/TN/80/IPT1 (kindly provided by Dr M. Gramiccia, ISS, Roma) and L. tropica strain (MHOM/IT/2012/ISS3130) were cultured in RPMI 1640 medium (EuroClone) supplemented with 10% heat‐inactivated fetal calf serum (EuroClone), 20 mM Hepes, and 2 mM L‐glutamine at 24 °C. To determine the 50% inhibitory concentration (IC50), the MTT method was used.^[ [40], [41] ^] Compounds were dissolved in DMSO and then diluted with medium to achieve the required concentrations. Drugs were placed in 96 wells round‐bottom microplates and seven serial dilutions made. Amphotericin B was used as reference antiLeishmania drug. Parasites were diluted in complete medium to 5 × 10^6 parasites mL^−1 and 100 μL of the suspension was added to each well. The plates were incubated at 24 °C for 72 h, after the incubation 20 μL of MTT solution (5 mg mL^−1) was added to each well and incubated for additional 3 h. The plates were then centrifuged at 1000 × g for 8 min at room temperature and the supernatants were discarded. The resulting pellets were dissolved in 100 μL of lysing buffer consisting of 20% w/v of a solution of SDS (Sigma), 40% of DMF (Merck) in H2O. The absorbance was measured spectrophotometrically at a test wavelength of 550 nm and a reference wavelength of 650 nm. The results were expressed as IC50 which was the concentration of compound necessary to inhibit parasite growth by 50%; each IC50 value was the mean of separate experiments performed in duplicate.

In series [4] the test system is L. tropica promastigotes. Briefly: Antileishmanial evaluation (MTT), promastigotes. Particulars: Leishmania tropica, 72 h, NA = not active. Here is the method:
as §2

The nature of series [5]: MTT cytotoxicity assay on fibroblasts. Particulars: human, GM-6114 embryonic human fibroblasts, compounds tested at 10 μM for 48 h, percentage of control, read-out: Cell viability GM‐6114. Here is the method:
MTT assays: MTT assays were performed using GM‐6114 (embryonic human fibroblast, ATCC, Manassas, VA). The cells were grown in DMEM with 10% FBS, 2 mM glutamine, and 1% penstrep and incubated at 37 °C in 5% CO2 in a humidified environment. All reagents were purchased from EuroClone (Milan, Italy). Briefly, the cell line was plated in 96 well plates at an adequate number to reach 80%–90% of confluence at the end of the assay. 16 h after cell plating, compounds were dissolved in DMSO to give a 10 mM stock solution, diluted in growth medium, and added at a final working concentration of 10 μM. After 48 h of incubation, 30 μL of 3‐(4,5‐dimethyl‐2‐thiazolyl)‐2,5‐diphenyl‐2H‐tetrazolium bromide (MTT) at a concentration of 2 mg mL^−1 in PBS were added in each well. Then, after further 4 h of incubation, the supernatant was removed, and 100 μL/well of DMSO were used to dissolve the formazan precipitate that could be found in vital cells. After 20 min, the results were read at 570 nm by means of a plate reader. The results were expressed as percentage of the control samples in which the cells were incubated with the same amount of DMSO but without compounds. The assays were repeated three times. In each set, every single compound was tested six times. Variation among duplicates was less than 10%.

[6] abbreviates: CQ-sensitive strain D10, 72 h, pLDH readout, mean of three independent experiments in duplicate, NA = not active.
Setting [7] is: CQ-resistant strain W2, 72 h, pLDH readout, mean of three independent experiments in duplicate, NA = not active.

On to `N#Cc1c(-c2ccccc2)n[nH]c1N1CCC(c2ccccc2)CC1` [14c, 3‐phenyl‐5‐(4‐phenylpiperidin‐1‐yl)‐1H‐pyrazole‐4‐carbonitrile], for which the IC50 was 31 µM in series [1] (setting [6]), 23.4 µM in series [2] (setting [7]), 22.4 µM in series [3] and 21.3 µM in series [4]. Also, the viability at 48 h, 10 μM in series [5] was found to be 76%.
As for `Nc1n[nH]c(N2CCC(c3ccccc3)CC2)c1S(=O)(=O)c1ccccc1` [15c, 5‐(4‐phenylpiperidin‐1‐yl)‐4‐(phenylsulfonyl)‐1H‐pyrazol‐3‐amine], the half-inhibitory concentration (IC50) came to 38 µM in series [1] (setting [6]), 51.8 µM in series [2] (setting [7]), 27.4 µM in series [3] and 44 µM in series [4]. The viability at 48 h, 10 μM in series [5] came to 102%.
With `CCN(CC)CCCC(C)Nc1[nH]nc(-c2ccccc2)c1C#N` (stereo not drawn) [14f, 5‐((5‐(diethylamino)pentan‐2‐yl)amino)‐3‐phenyl‐1H‐pyrazole‐4‐carbonitrile], the IC50 in series [1] (setting [6]) amounted to 43.3 µM; in series [2] (setting [7]), 13.4 µM; in series [3], 11 µM; in series [4], 9.74 µM. For the same compound, the viability at 48 h, 10 μM in series [5] worked out at 58%.
As to `N#Cc1c(O)nc(N)nc1N1CCOCC1` [16b, 2‐amino‐4‐hydroxy‐6‐morpholinopyrimidine‐5‐carbonitrile], the viability at 48 h, 10 μM in series [5] was found to be 65%.
Same read-out and setting: then `COc1ccc(CCNc2[nH]nc(N)c2S(=O)(=O)c2ccccc2)cc1OC` [15a, N ^ 5 ‐(3,4‐dimethoxyphenethyl)‐4‐(phenylsulfonyl)‐1H‐pyrazole‐3,5‐diamine], with 70%.
As for `CCN(CC)CCCC(C)Nc1ccnc2cc(Cl)ccc12` (stereo not drawn) [CQ, chloroquine, reference compound], the IC50 worked out at 0.04 µM in series [1] (D10, 72 h) and 0.45 µM in series [2] (W2, 72 h).
`N#Cc1c(-c2ccccc2)nc(N)nc1N1CCOCC1` [17b, 2‐amino‐4‐morpholino‐6‐phenylpyrimidine‐5‐carbonitrile]: in series [5], the viability at 48 h, 10 μM came to 66%.
As for `COc1ccc(CCNc2[nH]nc(C(C)(C)C)c2C#N)cc1OC` [13a, 3‐(tert‐butyl)‐5‐((3,4‐dimethoxyphenethyl)amino)‐1H‐pyrazole‐4‐carbonitrile], the half-maximal inhibitory concentration (IC50) in series [1] (setting [6]) was determined as 28.6 µM; in series [2] (setting [7]), 25.6 µM; in series [3], 40.1 µM; in series [4] it was 52.2 µM. Further, the viability at 48 h, 10 μM in series [5] was found to be 82%.
Consider `C[C@@H]1[C@H](O)[C@@H](C)/C=C/C=C/C=C/C=C/C=C/C=C/C=C/[C@H](O[C@@H]2O[C@H](C)[C@@H](O)[C@H](N)[C@@H]2O)C[C@@H]2O[C@](O)(C[C@@H](O)C[C@@H](O)[C@H](O)CC[C@@H](O)C[C@@H](O)CC(=O)O[C@H]1C)C[C@H](O)[C@H]2C(=O)O` [AmB, amphotericin B, reference compound], for which the IC50 in series [3] amounted to 0.22 µM; in series [4], 0.29 µM.
Consider `COc1ccc(CCNc2nc(N)nc(-c3ccccc3)c2C#N)cc1OC` [17a, 2‐amino‐4‐((3,4‐dimethoxyphenethyl)amino)‐6‐phenylpyrimidine‐5‐carbonitrile], for which the viability at 48 h, 10 μM in series [5] came out at 46%.
For `CCCCN(CCCC)CCCNc1[nH]nc(-c2ccccc2)c1C#N` [14e, 5‐((3‐(dibutylamino)propyl)amino)‐3‐phenyl‐1H‐pyrazole‐4‐carbonitrile], the concentration for half-maximal inhibition (IC50) in series [1] (setting [6]) came out at 9.79 µM; in series [2] (setting [7]) it was 4.34 µM; in series [3] it was 6.17 µM; in series [4] it was 8.32 µM. Further, the viability at 48 h, 10 μM in series [5] came out at 65%.
Turning to `CCCCN(CCCC)CCCNc1nc(N)nc(O)c1C#N` [16e, 2‐amino‐4‐((3‐(dibutylamino)propyl)amino)‐6‐hydroxypyrimidine‐5‐carbonitrile], the concentration for half-maximal inhibition (IC50) in series [2] (setting [7]) stood at 45 µM. For the same compound, the viability at 48 h, 10 μM in series [5] was determined as 66%.
Regarding `Nc1n[nH]c(N2CCOCC2)c1S(=O)(=O)c1ccccc1` [15b, 5‐morpholino‐4‐(phenylsulfonyl)‐1H‐pyrazol‐3‐amine], the IC50 in series [1] (setting [6]) worked out at 49.6 µM; in series [2] (setting [7]), 50.4 µM. Moreover, the viability at 48 h, 10 μM in series [5] was 87%.
The corresponding values for `COc1ccc(CCNc2nc(N)nc(O)c2C#N)cc1OC` [16a, 2‐amino‐4‐((3,4‐dimethoxyphenethyl)amino)‐6‐hydroxypyrimidine‐5‐carbonitrile] are 9.24 µM, 31.7 µM and 67%.
Take `N#Cc1c(-c2ccc(Cl)cc2)n[nH]c1Nc1ccccc1` [VIb, reference compound]: the half-maximal inhibitory concentration (IC50) was found to be 34.3 µM in series [1] (setting [6]), 32.7 µM in series [2] (setting [7]), 19.1 µM in series [3] and 23.2 µM in series [4]. The viability at 48 h, 10 μM in series [5] amounted to 70%.
Turning to `N#Cc1c(-c2ccccc2)n[nH]c1N1CCOCC1` [14b, 5‐morpholino‐3‐phenyl‐1H‐pyrazole‐4‐carbonitrile], 75.9 µM corresponded to half-maximal inhibition in series [3] (IC50). Also, in series [5], the viability at 48 h, 10 μM stood at 84%.
`COc1ccc(CCNc2[nH]nc(-c3ccccc3)c2C#N)cc1OC` [14a, 5‐((3,4‐dimethoxyphenethyl)amino)‐3‐phenyl‐1H‐pyrazole‐4‐carbonitrile]: the concentration for half-maximal inhibition (IC50) in series [1] (setting [6]) was found to be 35.1 µM; in series [2] (setting [7]) it was 36.5 µM; in series [3], 40.1 µM; in series [4], 55.7 µM. Also, the viability at 48 h, 10 μM in series [5] came out at 87%.
For the compound `CC(C)(C)c1n[nH]c(N2CCOCC2)c1C#N` [13b, 3‐(tert‐butyl)‐5‐morpholino‐1H‐pyrazole‐4‐carbonitrile], the viability at 48 h, 10 μM in series [5] is 91%.
As to `CCCCN(CCCC)CCCNc1nc(N)nc(-c2ccccc2)c1C#N` [17e, 2‐amino‐4‐((3‐(dibutylamino)propyl)amino)‐6‐phenylpyrimidine‐5‐carbonitrile], the IC50 in series [1] (setting [6]) worked out at 16.7 µM; in series [2] (setting [7]), 4.18 µM; in series [3] it was 7.31 µM; in series [4], 9.14 µM. Besides, the viability at 48 h, 10 μM in series [5] came to 67%.
On the same counts, the results for `N#Cc1c(-c2cccc(Br)c2)n[nH]c1Nc1ccccc1` [VIa, reference compound] are 27.8 µM, 21 µM, 17.7 µM, 21.2 µM and 78%.
With `N#Cc1c(-c2ccc(Br)cc2)n[nH]c1Nc1ccccc1` [VIc, reference compound], the IC50 is 19.8 µM in series [1] (setting [6]), 19.9 µM in series [2] (setting [7]), 19.3 µM in series [3] and 23.2 µM in series [4]. In series [5], the viability at 48 h, 10 μM is 67%.
